According to patent publication US20230091336A1, “CANNABINOID COMPOSITIONS” (priority 2020, published 2023):

Tests used:
[1] = tested on: SOCE in Jurkat T cells; test: SOCE Fura-2 bioassay in Jurkat cells; format: cell-based, human; settings: for effect on SOCE Ca^2+ signals, pure compounds: 10 μM, 1 μM thapsigargin, FIG. 7A, 7C; for IC50: Homo sapiens, read-out: IC50 SOCE, purified cannabinoids, Jurkat, Table 5
[2] = tested on: SOCE in U937 human monocytes; test: SOCE Fura-2 bioassay in U937 cells; settings: Homo sapiens, U-937, read-out: IC50 SOCE, purified cannabinoids, U937; Table 5
Experimental: (§3) Briefly, SOCE inhibition experiments were performed as described in Example 8, using each of the hemp extracts listed below and in Tables 6A and 6B at six concentrations each in each of the five cell types listed above to obtain dose response curves, as shown in FIGS. 11A-11SS. […] All data are averages of three independent runs±SEM. […] Hemp extracts used in FIGS. 11A-11SS are: Sour Space Candy (SSC), Hawaiian Haze (HH), Special Sauce (SS), Suver Haze (SH), White CBG (WCBG), Elektra (ELEK), Cherry Wine (CW), Lifter (LIF), Grape Soda (GS).

[3] = tested on: SOCE in HEK-293 human embryonic kidney cells; test: SOCE Fura-2 bioassay in HEK293 cells; format: cell-based; settings: for IC50: Homo sapiens, HEK293, read-out: IC50 SOCE, purified cannabinoids, HEK-293, Table 5
[4] = tested on: SOCE-mediated increases in intracellular Ca^2+; test: SOCE dose-response of CBGA (FIG. 15); format: cell-based; settings: read-out: IC50 inhibition of SOCE-mediated increases in intracellular Ca^2+
From the text: (§1) Data from dose-response curves for the inhibition of TRPM7 currents (dark gray symbols) obtained in experiments shown in FIG. 14 and SOCE-mediated increases in intracellular Ca^2+ (light gray symbols) are shown in FIG. 15.

[5] = target: T1, TRPM7 (Homo sapiens, UniProt Q96QT4); test: Whole-cell patch clamp of TRPM7 over-expressed in HEK293 cells; format: cell-based; set-up: expressed in transfected cells; host or cells: HEK293; settings: HEK293 over-expressing TRPM7
Experimental: Activation of TRPM7 over-expressed in HEK293 cells by perfusing the cells with intracellular solution containing 0 ATP and 0 Mg^2+, resulting in fast and maximal activation of TRPM7 outward currents at +40 mV is shown in FIG. 14.
as §1
Target sequence in this assay (Q96QT4 whole entry, species assumed): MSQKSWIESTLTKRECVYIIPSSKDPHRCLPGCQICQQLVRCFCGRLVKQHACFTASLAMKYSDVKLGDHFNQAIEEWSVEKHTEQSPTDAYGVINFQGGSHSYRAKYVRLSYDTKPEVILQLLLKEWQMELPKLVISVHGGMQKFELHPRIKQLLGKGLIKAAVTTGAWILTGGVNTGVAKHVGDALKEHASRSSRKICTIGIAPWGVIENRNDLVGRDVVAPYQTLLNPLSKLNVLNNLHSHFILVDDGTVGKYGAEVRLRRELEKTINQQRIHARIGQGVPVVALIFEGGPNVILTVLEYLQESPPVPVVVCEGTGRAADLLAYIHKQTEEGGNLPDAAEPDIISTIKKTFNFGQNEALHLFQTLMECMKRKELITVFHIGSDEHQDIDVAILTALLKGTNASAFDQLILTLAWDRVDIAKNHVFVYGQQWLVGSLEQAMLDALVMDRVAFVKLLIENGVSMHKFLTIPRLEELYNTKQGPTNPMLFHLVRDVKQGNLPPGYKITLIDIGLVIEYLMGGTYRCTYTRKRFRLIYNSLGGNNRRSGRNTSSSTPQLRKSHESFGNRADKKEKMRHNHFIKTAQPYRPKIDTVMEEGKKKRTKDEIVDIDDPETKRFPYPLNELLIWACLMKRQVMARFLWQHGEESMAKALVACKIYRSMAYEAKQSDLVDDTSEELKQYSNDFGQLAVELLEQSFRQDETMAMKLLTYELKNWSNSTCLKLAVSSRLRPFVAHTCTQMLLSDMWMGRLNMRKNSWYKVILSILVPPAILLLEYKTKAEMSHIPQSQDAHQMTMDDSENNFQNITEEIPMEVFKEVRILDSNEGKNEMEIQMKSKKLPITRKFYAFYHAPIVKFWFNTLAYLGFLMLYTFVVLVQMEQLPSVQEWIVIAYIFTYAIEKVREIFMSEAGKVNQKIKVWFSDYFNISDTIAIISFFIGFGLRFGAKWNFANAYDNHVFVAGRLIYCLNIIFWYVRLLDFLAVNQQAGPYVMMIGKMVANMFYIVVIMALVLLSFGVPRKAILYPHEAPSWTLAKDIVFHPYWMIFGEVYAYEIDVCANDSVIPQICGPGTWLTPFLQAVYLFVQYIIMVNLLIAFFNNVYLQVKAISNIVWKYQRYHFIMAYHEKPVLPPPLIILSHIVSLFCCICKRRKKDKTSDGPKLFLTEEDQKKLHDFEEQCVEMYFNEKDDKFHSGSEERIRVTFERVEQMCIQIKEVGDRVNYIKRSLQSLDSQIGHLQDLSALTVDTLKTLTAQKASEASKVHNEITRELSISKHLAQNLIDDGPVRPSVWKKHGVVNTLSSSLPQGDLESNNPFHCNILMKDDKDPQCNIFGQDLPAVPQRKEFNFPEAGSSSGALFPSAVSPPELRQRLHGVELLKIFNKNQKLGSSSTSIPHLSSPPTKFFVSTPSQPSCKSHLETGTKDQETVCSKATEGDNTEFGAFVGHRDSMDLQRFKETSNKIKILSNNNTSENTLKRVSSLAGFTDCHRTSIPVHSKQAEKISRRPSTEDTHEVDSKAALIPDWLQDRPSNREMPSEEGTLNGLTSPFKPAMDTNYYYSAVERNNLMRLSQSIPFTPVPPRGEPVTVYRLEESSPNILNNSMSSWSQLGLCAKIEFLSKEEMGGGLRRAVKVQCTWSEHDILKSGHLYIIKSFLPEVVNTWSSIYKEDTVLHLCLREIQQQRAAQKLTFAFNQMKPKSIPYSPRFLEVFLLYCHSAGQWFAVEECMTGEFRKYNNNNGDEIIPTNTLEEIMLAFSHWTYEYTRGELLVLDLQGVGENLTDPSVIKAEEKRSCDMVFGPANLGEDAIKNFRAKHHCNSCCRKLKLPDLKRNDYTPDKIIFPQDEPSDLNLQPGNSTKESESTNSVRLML

[6] = target: T1, TRPM7; test: Whole-cell patch clamp of TRPM7 outward current in Jurkat cells; format: cell-based; set-up: endogenous in cells; host or cells: Jurkat; settings: 10 μM
Experimental: (§2) Inward CRAC currents were induced at −120 mV (gray trace) and outward currents at +40 mV (black trace, where CRAC currents reverse and are essentially absent). At the +40 mV voltage potential, TRPM7 channels produce monovalent outward currents. Perfusion of 50 μM IP3 activates ICRAC at −120 mV as above and the removal of intracellular ATP slowly activates TRPM7 current at +40 mV. Application of 10 μM CBGA blocks both outward TRPM7 and inward CRAC currents (see FIG. 13, black and gray traces, respectively). Without being bound by theory, CBGA may also block TRPM7's kinase activity, similar to other TRPM7 blockers such as NS8593.
Target sequence in this assay (Q96QT4 whole entry): as the sequence (Q96QT4 whole entry, species assumed) above

[7] = tested on: SOCE in THP-1 human monocytes; test: SOCE Fura-2 bioassay in THP-1 cells; settings: for IC50: Homo sapiens, THP-1, read-out: IC50 SOCE, purified cannabinoids
[8] = tested on: SOCE in RBL-2H3 rat mast cells; test: SOCE Fura-2 bioassay in RBL-2H3 cells; settings: Rattus norvegicus, RBL-2H3, read-out: IC50 SOCE, purified cannabinoids, RBL-2H3; Table 5
Experimental: as §3

[9] = tested on: CRAC channels (ICRAC); test: Whole-cell patch clamp of IP3-induced ICRAC in Jurkat cells; format: cell-based, human; settings: 10 μM, 50 μM IP3
Experimental: The ability of CBGA to inhibit store-operated calcium entry (SOCE) within cells was experimentally interrogated (see FIG. 12). Jurkat cells were perfused with 50 μM IP3 to induce store depletion and activation of CRAC channels (the resulting Ca^2+ inward current is known as ICRAC). ICRAC is a long-lasting inward current at −120 mV membrane potential (black trace) that can be blocked by 10 μM CBGA (gray trace).
as §2

Structure (SMILES) | effect on SOCE Ca^2+ signals, pure compounds [1] | IC50 [1] | IC50 [2] | inhibitory effect in immune cells compared with non-immune HEK293 cells ([3]; 10 μM, HEK293 (FIG. 8) vs immune cells) | IC50 [3] | IC50 [4] | block of TRPM7 current at +40 mV ([5]; 1, 3, 10 or 30 μM, 0 ATP, 0 Mg^2+) | IC50 ([5]; FIG. 15, read-out: IC50 inhibition of TRPM7 currents) | block of outward TRPM7 current at +40 mV [6] | IC50 [7] | IC50 [8] | block of inward calcium current ICRAC at −120 mV [9] | combinatory effect on SOCE inhibition when paired with CBGA (isobolographic analysis) ([1]; pairs expected to inhibit 50%, FIGS. 10A-10T) | combinatory effect when paired with 2.2 μM CBGA ([7]; THP-1, 10 μM cannabinoid + 2.2 μM CBGA, FIG. 10Z)
CCCCCc1cc(O)c(C/C=C(\C)CCC=C(C)C)c(O)c1C(=O)O [CBGA, (E)-3-(3,7-dimethylocta-2,6-dien-1-yl)-2,4-dihydroxy-6-pentylbenzoic acid] | fully block the Ca^2+ signals | 0.53 µM | 2.23 µM | more potent | 3.6 µM | ~2 µM | dose-dependent block | ~3 µM | blocks | 2.21 µM | 5.72 µM | completely blocks |  | 
C=C(C)[C@@H]1CCC(C)=C[C@H]1c1c(O)cc(CCCCC)cc1O [CBD, (1′R,2′R)-5′-methyl-4-penlyl-2′-(prop-1-en-2-yl)-1′,2′,3′,4′-tetrahydro-[1,1′-biphenyl]-2,6-diol] | low to no effects | 7.42 µM | > 50 µM |  | > 50 µM |  |  |  |  | > 50 µM | > 50 µM |  | Simple additive | sub-additive
